Laboratory results published in US20200399238A1, “THERAPEUTIC AURONES” (MIDDLE TENNESSEE STATE UNIVERSITY, priority 2016, published 2020).
pIC50: −log10 of the molar value. Read-outs that look alike come from different tables or passages of the source.

How the values were obtained:
[1] = system: Leishmania amazonensis promastigotes expressing beta-lactamase; assay: microbe, parasite or virus in culture; format: cell-based; settings: for pIC50: Leishmania amazonensis
[2] = system: Trypanosoma brucei brucei 427 cells; assay: T. brucei culture and assay (PrestoBlue); format: cell-based
[3] = system: rat skeletal muscle cell line, L6; assay: cells; format: cell-based
[4] = system: Trypanosoma cruzi Tulahuen cells expressing beta-galactosidase; assay: T. cruzi intracellular assay (beta-galactosidase, L6 host cells); settings: for Selectivity L6/TC-I: Table 3A; for Selectivity L6/TC-I / Selectivity L6/Tc-I: estimated from highest L6 dose tested where no L6 IC50; for pIC50: Trypanosoma cruzi, TULAHUEN; for Selectivity L6/Tc-I: Table 3B
[5] = read-out: IC50 L. amaz. (footnote c: value obtained from one trial)
[6] = Table 2, L6 IC50 / L. amazonensis IC50
[7] = Table 2, L6 IC50 / T. brucei IC50
[8] = Table 3A, estimated from highest L6 dose tested where no L6 IC50
[9] = Trypanosoma brucei, Table 1, mean of 2(+) independent trials, read-out: IC50 T. brucei
[10] = Rattus norvegicus, Table 1, read-out: IC50 Toxicity (L6)
[11] = Rattus norvegicus, Table 3A, weighted means of two or more independent trials, read-out: IC50 L6
[12] = Table 1, intracellular T. cruzi IC50
[13] = Table 2, L6 IC50 / T. cruzi IC50 (intracellular assay)
[14] = read-out: IC50 T. cruzi, Table 1, intracellular assay, mean of 2(+) trials (^c one trial)
[15] = read-out: IC50 T. cruzi, Table 2, intracellular assay, mean of 2(+) independent trials
[16] = read-out: IC50 TC-I, Table 3A, weighted means of two or more independent trials
[17] = Table 2, mean of 2(+) independent trials, read-out: IC50 T. brucei
[18] = Table 2, L6 mammalian cells, read-out: IC50 Toxicity (L6)
[19] = Rattus norvegicus, Table 3B, weighted means of two or more independent trials, read-out: IC50 L6
[20] = read-out: IC50 TC-I, Table 3B, weighted means of two or more independent trials
[21] = Trypanosoma brucei, read-out: T. brucei IC50 dose

Row | SMILES | pIC50 ([1]; read-out: IC50 L. amaz.) | Selectivity L6/La ([1]; Table 1) | Selectivity L6/La [1, 6] | pIC50 [2, 9] | pIC50 [3, 10] | pIC50 [3, 11] | melting point | Selectivity L6/Tc [4, 12] | Selectivity L6/Tc [4, 13] | Selectivity L6/TC-I [4] | pIC50 [4, 14] | pIC50 [4, 15] | pIC50 [4, 16] | pIC50 [2, 17] | pIC50 [3, 19] | pIC50 [4, 20] | other results
1 | O=C1/C(=C/c2ccccc2Br)Oc2ccccc21 [Aurone 9006, (Z)-2-(2-bromobenzylidene)benzofuran-3(2H)-one] | > 6.00 | >226.08 | >226.08 | 4.55 | 3.65 | 3.65 | 134 to 140 °C | 10.61 | 10.61 | 10.61 | 4.67 | 4.67 | 4.67 |  |  |  | pIC50 [1, 5]: > 6.00; Selectivity L6/Tb ([2]; Table 1): 7.98; Selectivity L6/Tb [2, 7]: 7.98; Selectivity L6/Tb [2, 8]: 7.98
2 | O=C1/C(=C/c2ccccc2Cl)Oc2ccccc21 [Aurone 9007, (Z)-2-(2-chlorobenzylidene)benzofuran-3(2H)-one] | 4.76 | 13.55 | 13.55 | 4.95 | 3.62 | 3.62 | 118 to 126 °C | 18.72 | 18.72 | 18.72 | 4.90 | 4.90 | 4.90 |  |  |  | pIC50 [1, 5]: 4.76; Selectivity L6/Tb ([2]; Table 1): 21.02; Selectivity L6/Tb [2, 7]: 21.02; Selectivity L6/Tb [2, 8]: 21.02
3 | O=C1/C(=C/c2cccc(F)c2)Oc2ccccc21 [Aurone 9024, (Z)-2-(3-fluorobenzylidene)benzofuran-3(2H)-one] | 4.70 | >4.98 | >4.98 | < 4.30 | < 4.00 | < 4.00 | 111 to 113 °C |  |  | 14.99 | 5.18 | 5.18 | 5.18 | < 4.30 |  |  | pIC50 [3, 18]: < 4.00
4 | O=C1/C(=C/c2cccc(Cl)c2)Oc2ccccc21 [Aurone 9026, (Z)-2-(3-chlorobenzylidene)benzofuran-3(2H)-one] | 4.90 | 6.15 |  | 4.56 | 4.11 | 4.11 | 86 to 89 °C | 7.07 |  | 7.07 | 4.96 |  | 4.96 |  |  |  | Selectivity L6/Tb ([2]; Table 1): 2.83; Selectivity L6/Tb [2, 8]: 2.83
5 | O=C1/C(=C/c2cccc(I)c2)Oc2ccccc21 [Aurone 9028, (Z)-2-(3-iodobenzylidene)benzofuran-3(2H)-one] | 5.58 | >38.31 | >38.31 | < 4.30 | < 4.00 | < 4.00 | 99 to 105 °C | >13.26 | >13.26 | >13.26 | 5.12 | 5.12 | 5.12 | < 4.30 |  |  | pIC50 [3, 18]: < 4.00
6 | O=C1/C(=C/c2ccc(I)cc2)Oc2ccccc21 [Aurone 9029, (Z)-2-(4-iodobenzylidene)benzofuran-3(2H)-one] | 5.51 | >32.15 | >32.15 | < 4.30 | < 4.00 | < 4.00 | 176 to 179 °C | >9.04 | >9.04 | >9.04 | 4.96 | 4.96 | 4.96 | < 4.30 |  |  | pIC50 [3, 18]: < 4.00
7 | COC(=O)c1ccc(/C=C2\Oc3ccccc3C2=O)cc1 [Aurone 9047, Methyl (Z)-4-((3-oxobenzofuran-2(3H)-ylidene)methyl)benzoate] | 4.62 | >4.13 |  | < 4.30 | < 4.00 | < 4.00 | 144 to 147 °C |  |  |  | < 4.30 |  | < 4.30 |  |  |  | 
8 | O=C1/C(=C/c2cc(Br)c(Br)s2)Oc2ccccc21 [Aurone 9050, (Z)-2-((4,5-dibromothiophen-2-yl)methylene)benzofuran-3(2H)-one] | 5.03 |  |  | < 4.30 | < 4.00 |  | 185 to 190 °C |  |  |  | < 4.30 | < 4.30 |  |  | < 4.00 | < 4.30 | 
9 | O=C1/C(=C/c2ccccn2)Oc2ccccc21 [Aurone 9051, (Z)-2-(pyridin-2-ylmethylene)benzofuran-3(2H)-one] | 5.20 |  |  | 4.64 | 4.10 |  | 119 to 121 °C |  |  |  | 4.71 | 4.71 |  |  | 4.10 | 4.71 | pIC50 [2, 21]: 4.64
10 | COc1cc(Br)c(/C=C2\Oc3ccccc3C2=O)cc1OC [Aurone 9056, (Z)-2-(2-bromo-4,5-dimethoxybenzylidene)benzofuran-3(2H)-one] | 5.74 |  |  | 4.66 | < 4.00 |  | 144 to 147 °C |  |  |  | 4.44 | 4.44 |  |  |  |  | 
11 | Cc1ccccc1/C=C1\Oc2ccccc2C1=O [Aurone 9057, (Z)-2-(2-methylbenzylidene)benzofuran-3(2H)-one] | > 6.00 |  |  | 4.61 | 4.00 |  | 89 to 93 °C |  |  |  | 4.58 | 4.58 |  |  |  |  | 
12 | O=C1/C(=C/c2ccc(Br)s2)Oc2ccccc21 [Aurone 9058, (Z)-2-((5-bromothiophen-2-yl)methylene)benzofuran-3(2H)-one] | 5.56 | 29.05 | 29.05 | < 4.30 | 4.10 |  | 155 to 158 °C | 2.28 | 2.28 |  | 4.46 | 4.46 |  | < 4.30 | 4.10 | 4.46 | Selectivity L6/Tc-I [4]: 2.28
13 | Cc1[nH]cnc1/C=C1\Oc2ccccc2C1=O [Aurone 9059, (Z)-2-((5-methyl-H-imidazol-4-yl)methylene)benzofuran-3(2H)-one] | 5.40 | 80.99 | 80.99 | < 4.30 | 3.49 |  | 180 to 183 °C | 61.09 | 61.09 |  | 5.28 | 5.28 |  | < 4.30 | 3.49 | 5.28 | pIC50 [2, 21]: < 4.30; selectivity for T. cruzi (L6/Tc) [4]: 61.09; Selectivity L6/Tc-I [4]: 61.09; pIC50 ([4]; read-out: T. cruzi IC50 dose): 5.28
